Assay results: patent publication US11975005B2, “Treatment of respiratory diseases” (TIANLI BIOTECH PTY LTD, priority 2015, dated 2024)

What was measured:
RSV [1] = assay: RSV infection in Balb/C mice, PF670462 on days 3, 4 and 5; format: in vivo
[2] = test system: primary human airway epithelial cells; assay: Dex-induced gene expression in ALI-differentiated primary human airway epithelial cells; format: cell-based; settings: 3 and 10 μM
Excerpt: The methods used in Examples 1 to 5 (and 10, 19, 20) are similar to those reported in Salem et al 2012 (Br J Pharmacol. 166:2036-2048) and again in Keenan et al 2014 (Respiratory Research, e15:55) in which methods for cell culture, GRE assays and gene expression measurements are fully described. Additional methods for growth of respiratory syncytial virus (RSV) and rhinovirus (RV) are described in Collins et al 2007 (Respir Physiol Neurobiol. 2007 Jun. 15; 156(3):345-52.) and by Xatzipsalti and papdopoulos, 2007 (Contrib Microbiol. 2007; 14:33-41).
These studies were undertaken in ALI-differentiated culture of primary human airway epithelial cells.

RSV [3] = assay: 5 day model of RSV infection, treatments from day 1; format: in vivo, mice
bleomycin-treated mice = test system: bleomycin-treated mice
Excerpt: Bleomycin is commonly used in mice to model pulmonary fibrosis. This anti-cancer agent is known to induce pulmonary fibrosis in a subset of patients. […] Eventually the intensity of the fibrosis declines but never fully resolves. Early treatment in the model (during the first 3 days) may influence the outcome via anti-inflammatory effects (Limjunyawong et al. (2014) Physiol Rep. 2(2): e00249). Delayed treatment is used to specifically examine impact on the fibrogenic process.

ALK5 = biological target: T1, ALK5 (Homo sapiens, UniProt P36897); assay: ALK5 inhibition (IC50); format: biochemical
T1 sequence (P36897 34-503): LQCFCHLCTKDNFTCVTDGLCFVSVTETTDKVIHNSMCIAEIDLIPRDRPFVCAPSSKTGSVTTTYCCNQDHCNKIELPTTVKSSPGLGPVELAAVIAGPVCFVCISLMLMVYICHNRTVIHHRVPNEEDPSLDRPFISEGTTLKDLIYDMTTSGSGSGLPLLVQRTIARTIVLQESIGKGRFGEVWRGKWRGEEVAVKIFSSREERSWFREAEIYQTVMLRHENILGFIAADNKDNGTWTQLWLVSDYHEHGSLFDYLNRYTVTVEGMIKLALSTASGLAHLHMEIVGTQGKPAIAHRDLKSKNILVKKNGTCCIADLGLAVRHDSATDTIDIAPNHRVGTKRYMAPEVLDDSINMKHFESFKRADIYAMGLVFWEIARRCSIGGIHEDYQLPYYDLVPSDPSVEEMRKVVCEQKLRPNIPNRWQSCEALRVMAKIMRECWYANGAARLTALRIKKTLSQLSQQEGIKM

GC responsive genes = assay: Topical (intranasal) PF670462 in naïve Balb/c mice, lung gene expression; format: in vivo; settings: naïve Balb/C female mice; PF670462 0.6 μg intranasal 4 and 24 hours before post mortem
RSV [4] = assay: HDM allergen challenge with RSV infection in mice; format: in vivo; settings: HDM allergen challenged mice infected with 2 million RSV virions 3 days prior to post mortem
Protocol: (§1) The conduct of the house dust mite allergy model with RSV complication was conducted as described herein and using the approaches described in Fuchs and Braun 2008 (Curr Drug Targets. 2008 June; 9(6):495-502).

[5] = test system: human parenchymal fibroblasts; assay: TGFβ-induced fibrogenic gene expression in human parenchymal lung fibroblasts; format: cell-based
Excerpt: Experiments described in the current Example and Example 14 involved culture of human parenchymal fibroblasts, measurement of their proliferation and gene expression response, the methods for which are detailed in Schuliga et al 2009 (Am J Respir Cell Mol Biol. 2009; 41(6):731-41).
The investigation of fibrogenesis may be undertaken in in vivo models typically using rodents. However, differences in behavior of cell types and species differences in protein structures and signaling systems create some limitations in the predictive value of such models. Additional valuable evidence of impacts on fibrogenesis can be obtained from the use of human fibroblasts isolated from the parenchyma and maintained in cell culture (Schuliga et al. (2009) Am J Respir Cell Mol Biol 41(6):731-741; Westergren-Thorsson et al. (2004) Int J Biochem Cell Biol 36(8): 1573-1584).
The data shown is for parenchymal lung fibroblasts from both patients with the pulmonary fibrotic disease, idiopathic pulmonary fibrosis (IPF) and those derived samples of non-IPF donors. […] Colla is a subunit of the fibrillar type collagen that is deposited in excess in the extracellular matrix in fibrotic lesions.
FIG. 15B was performed in the same manner as for FIG. 15A except that in this experiment the fibroblasts are cultured as a suspended spheroid, rather than in 2D monolayer culture.

GRE-regulated genes = assay: PF670462 aerosol exposure of Balb/C mice, lung gene expression; format: in vivo; settings: Balb/C female mice; aerosol 0.03-10 mg/ml, 7 min, 24 and 4 hours before harvest
Excerpt: […] and GILZ are known to exert anti-inflammatory actions in by suppression of the master pro-inflammatory transcription factor, NFκB.

HDM allergen = assay: House dust mite (HDM) allergen challenge in mice; format: in vivo
Protocol: as §1

[6] = Mock-treated mice, PF670462 ip, RT-qPCR
[7] = female Balb/C mice inoculated with RSV, Dex 1 mg/kg (i.p.)/day from day 1, PF670462 30 mg/kg days 3, 4 and 5
[8] = 3-day bleomycin, female mice, PF670462 30 mg/kg ip
[9] = 14 days bleomycin, PF670462 30 mg/kg/day delayed until day 3
[10] = 21 day bleomycin, female mice, PF670462 daily from day 8 until day 21
[11] = 21 day bleomycin, female mice, PF670462 day 8 to 21

`Nc1nccc(-c2c(-c3ccc(F)cc3)ncn2C2CCCCC2)n1` [PF670462] was tested, and the “expression of CXCL5” value (RSV [1]; FIG. 8B, during RSV infection) was “no effect alone”, the “expression of KC” value (RSV [1]; FIG. 8B, during RSV infection) was “no effect alone” and the “expression of TNFα” value (RSV [1]; FIG. 8B, during RSV infection) was “no effect alone”. The “IFN expression (IFNα, IFNβ and IFNγ)” value (RSV [1]; FIG. 8C, RSV treated mice, bronchoalveolar lavage cells and lung tissue, PF670462 given with Dex) was “prevented”, the “expression of GILZ in lung tissue” value (RSV [1]; [6]) was “directly stimulates” and the “expression of MKP1 in lung tissue” value (RSV [1]; [6]) was “neither Dex nor PF670462 alone increased expression”. For the same compound, the “expression of ZBTB16 in lung tissue” value (RSV [1]; [6]) was “directly stimulates”, the “bronchoalveolar lavage fluid (BALF) cellular content” value (RSV [1]; [7]) was “no effect” and the “bronchoalveolar lavage fluid (BALF) protein content” value (RSV [1]; [7]) was “no effect”. The “TGFβ suppression of (Dex 30 nM)-induced expression of SCNNIA” value [2] was “prevented”, the “TGFβ suppression of (Dex 30 nM)-induced expression of ZBTB16” value [2] was “prevented” and the “Levels of IFN β” value (RSV [3]) was “enhanced”. The “Levels of IFN λ 2” value (RSV [3]) was “enhanced”, the “Levels of IFN λ 3” value (RSV [3]) was “enhanced” and the “TNFα expression in BAL cells when added to Dex treatment” value (RSV [3]) was “further effect”. The “accumulation of inflammatory cells in the BAL fluid” value (RSV [3]; administered from day 1) was “reduced”, the “TNFα expression levels in BAL cells” value (RSV [3]; agent alone) was “directly suppresses” and the “Bleomycin induction of CTGF in lung tissue” value (bleomycin-treated mice; [8]) was “significantly reduced”. For the same compound, the “Bleomycin induction of Col1a in lung tissue” value (bleomycin-treated mice; [8]) was “significantly reduced”, the “Bleomycin induction of PAI-1 in lung tissue” value (bleomycin-treated mice; [8]) was “significantly reduced” and the “Bleomycin induction of TIMP1 in lung tissue” value (bleomycin-treated mice; [8]) was “significantly reduced”. The BAL protein levels (bleomycin-treated mice; 3-day bleomycin, female mice, PF670462 30 mg/kg ip once daily) was “significantly reduced”, the “BAL cells (increase by bleomycin)” value (bleomycin-treated mice; 3-day bleomycin, male mice) was “but not in PF670462- or Dex-treated mice” and the “Col1A expression increased by bleomycin, lung tissue” value (bleomycin-treated mice; 3-day bleomycin, male mice) was “reduced”. For the same compound, the “Col3 expression increased by bleomycin, lung tissue” value (bleomycin-treated mice; 3-day bleomycin, male mice) was “reduced”, the “IL-6 increases in response to bleomycin, lung tissue” value (bleomycin-treated mice; 3-day bleomycin, male mice) was “reduced” and the “TIMP1 expression increased by bleomycin, lung tissue” value (bleomycin-treated mice; 3-day bleomycin, male mice) was “reduced”. The “fibrogenesis / efficacy in the bleomycin model” value (bleomycin-treated mice; 4 independent studies, 3 to 21 days, male and female mice, PF670462 30 mg/kg/day, ip) was “able to reduce fibrogenesis”, the “accumulation of cells on the BAL fluid” value (bleomycin-treated mice; [9]) was “significantly reduced” and the “wet weight of the lung” value (bleomycin-treated mice; [9]) was “significantly reduced”. The “accumulation of cells in the BAL” value (bleomycin-treated mice; [10]) was “significantly reduced”, the “accumulation of protein in the BAL” value (bleomycin-treated mice; [10]) was “significantly reduced” and the “increase in lung wet weight” value (bleomycin-treated mice; [10]) was “significantly reduced”. For the same compound, the “expression of CTGF in the lung tissue” value (bleomycin-treated mice; [11]) was “significantly reduced”, the “expression of interleukin-6 (IL-6) in the lung tissue” value (bleomycin-treated mice; [11]) was “significantly reduced” and the “expression of plasminogen activation inhibitor-1 (PAI-1) in the lung tissue” value (bleomycin-treated mice; [11]) was “significantly reduced”. The “expression of glucocorticoid regulated gene GILZ in lung” value (bleomycin-treated mice; 21 day experiment, equally in saline and bleomycin-treated mice) was “induced”, the IC50 (ALK5) was 1.16 µM and the “effect on the GC responsive genes in lung tissue” value (GC responsive genes) was “direct stimulatory effect”. The BAL cell number (RSV [4]) was “not significantly reduced”, the “TGFβ induction of Col1a (collagen 1A) expression” value ([5]; 2D monolayer fibroblasts from IPF and non-IPF donors, TGFβ 24 hour, 3 μM) was “significantly suppressed” and the “TGFβ-induced collagen 1A expression in IPF fibroblasts cultured as suspended spheroid” value ([5]; FIG. 15B, 3 μM) was “inhibits”. The “TGFβ-induced collagen 1A increase in non-IPF derived cultures as suspended spheroid” value ([5]; FIG. 15B, 3 μM) was “not signficantly affected”, the “fibrogenic actions of TGFβ (FIGS. 15A-C, collagen 1A and CTGF)” value ([5]; IPF or non-IPF donors, 2D or 3D) was “inhibited” and the “lung expression of GILZ” value (GRE-regulated genes) was “dose-related increase”. The “lung expression of ZBTB116” value (GRE-regulated genes) was “dose-related increase”, the “increase in the BAL protein level” value (HDM allergen; HDM allergen 25 μg/35 μL daily intranasal, aerosol PF670462 3 mg/ml, Budesonide 0.5 mg/ml) was “regulated” and the “Lymphocyte numbers in BAL” value (HDM allergen; HDM allergen challenged mice, aerosol treatments) was “reduced”.
